These compounds were tested against T1, Olfactory receptor (Rattus norvegicus, UniProt D3Z9H0) (assay: Inhibition Assay).
T1 sequence (D3Z9H0 whole entry): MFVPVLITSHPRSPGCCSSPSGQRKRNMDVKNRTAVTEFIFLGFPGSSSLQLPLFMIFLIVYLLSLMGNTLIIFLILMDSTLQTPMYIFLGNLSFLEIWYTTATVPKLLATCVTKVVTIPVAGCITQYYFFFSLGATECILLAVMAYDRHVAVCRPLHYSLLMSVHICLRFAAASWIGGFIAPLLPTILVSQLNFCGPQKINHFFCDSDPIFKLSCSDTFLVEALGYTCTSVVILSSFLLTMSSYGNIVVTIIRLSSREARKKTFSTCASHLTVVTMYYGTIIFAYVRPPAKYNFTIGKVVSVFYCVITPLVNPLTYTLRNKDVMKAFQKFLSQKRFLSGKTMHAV
Source text: Inhibition assay of olfactory receptors 17 activation.

In order of rising IC50:
1. O=CCC1CCCCC1 [Aldehydes, 5]  37 µM
2. O=CC1CCCCCC1 [Aldehydes, 6]  57 µM
3. O=CCCC1CCCC1 [Aldehydes, 4]  60 µM
4. CCCCCC=O [Aldehydes, C6]  133 µM
5. CCCCC=O [Aldehydes, C5]  460 µM

Source: BindingDB's records for doi:10.1016/j.chembiol.2008.10.014 (Columbia University, 2008)
